pIC50: −log10 of the molar value.
Columns and labels:
PI3Kδ = PI3Kδ (Homo sapiens (Human), UniProt O00329); experiment: PI3Kδ enzyme activity inhibition IC50 evaluation assay; format: biochemical; settings: luminescence, 25 μM ATP, 50 μM PIP2, 2 hrs room temperature
Experimental: (§1) PI3Kα, PI3Kδ, PI3Kβ and PI3Kγ Enzyme Activity Inhibition IC50 Evaluation Assay
• 1. Buffer preparation: 50 mM HEPES, pH 7.5, 3 mM MgCl2, 1 mM EGTA, 100 mM NaCl, 0.03% CHAPS. • 2. Compound was formulated in 100% DMSO in a concentration gradient, and added to a 384-well plate to a final DMSO concentration of 1%. • 3. PI3Kα, PI3Kδ, PI3Kβ and PI3Kγ enzymes were diluted to an optimum concentration with the following buffer: 50 mM HEPES, pH 7.5, 3 mM MgCl2, 1 mM EGTA, 100 mM NaCl, 0.03% CHAPS, 2 mM DTT, and transferred to a 384-well plate and incubated with the compound for a certain time. • 4. […] For PI3Kβ and PI3Kγ, it was still necessary to further add 10 μL ADP-Glo Detection Reagent, and then equilibrated at room temperature for 30 minutes. • 5. Read Luminescense with FlexStation, and calculate the inhibition rate as the average of two tests.

PI3Kα = PI3Kα (Homo sapiens (Human), UniProt P42336); experiment: PI3Kα enzyme activity inhibition IC50 evaluation assay; format: biochemical; settings: ratio PI3Kα vs PI3Kδ
PI3Kα, sequence (P42336 whole entry): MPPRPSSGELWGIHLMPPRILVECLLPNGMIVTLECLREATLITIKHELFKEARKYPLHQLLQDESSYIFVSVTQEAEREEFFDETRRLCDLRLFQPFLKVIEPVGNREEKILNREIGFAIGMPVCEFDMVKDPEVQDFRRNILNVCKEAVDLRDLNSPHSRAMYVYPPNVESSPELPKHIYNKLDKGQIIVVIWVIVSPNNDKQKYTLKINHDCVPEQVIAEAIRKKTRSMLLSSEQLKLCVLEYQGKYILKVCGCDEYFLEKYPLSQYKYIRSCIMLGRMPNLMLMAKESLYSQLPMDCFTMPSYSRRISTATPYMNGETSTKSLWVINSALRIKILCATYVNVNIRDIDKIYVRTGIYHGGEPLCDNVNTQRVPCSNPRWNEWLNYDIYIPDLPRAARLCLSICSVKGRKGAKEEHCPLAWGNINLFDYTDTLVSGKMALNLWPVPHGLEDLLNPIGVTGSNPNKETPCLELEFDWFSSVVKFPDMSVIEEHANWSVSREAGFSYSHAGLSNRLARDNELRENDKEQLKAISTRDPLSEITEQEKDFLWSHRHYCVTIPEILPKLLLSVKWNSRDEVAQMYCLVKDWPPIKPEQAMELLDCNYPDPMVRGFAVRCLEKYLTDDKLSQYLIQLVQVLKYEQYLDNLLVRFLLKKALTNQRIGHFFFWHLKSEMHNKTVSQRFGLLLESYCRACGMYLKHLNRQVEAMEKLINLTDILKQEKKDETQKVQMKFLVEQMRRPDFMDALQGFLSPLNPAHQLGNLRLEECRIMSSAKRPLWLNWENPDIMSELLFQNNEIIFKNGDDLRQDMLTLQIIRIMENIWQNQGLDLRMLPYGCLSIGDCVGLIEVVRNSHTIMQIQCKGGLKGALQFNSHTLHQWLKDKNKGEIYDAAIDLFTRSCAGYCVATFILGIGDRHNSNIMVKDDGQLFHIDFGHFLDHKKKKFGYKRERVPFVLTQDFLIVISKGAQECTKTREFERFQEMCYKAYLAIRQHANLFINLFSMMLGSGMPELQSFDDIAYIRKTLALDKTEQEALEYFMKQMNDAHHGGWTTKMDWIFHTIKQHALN
PI3Kα, sequence (P27986 whole entry partner): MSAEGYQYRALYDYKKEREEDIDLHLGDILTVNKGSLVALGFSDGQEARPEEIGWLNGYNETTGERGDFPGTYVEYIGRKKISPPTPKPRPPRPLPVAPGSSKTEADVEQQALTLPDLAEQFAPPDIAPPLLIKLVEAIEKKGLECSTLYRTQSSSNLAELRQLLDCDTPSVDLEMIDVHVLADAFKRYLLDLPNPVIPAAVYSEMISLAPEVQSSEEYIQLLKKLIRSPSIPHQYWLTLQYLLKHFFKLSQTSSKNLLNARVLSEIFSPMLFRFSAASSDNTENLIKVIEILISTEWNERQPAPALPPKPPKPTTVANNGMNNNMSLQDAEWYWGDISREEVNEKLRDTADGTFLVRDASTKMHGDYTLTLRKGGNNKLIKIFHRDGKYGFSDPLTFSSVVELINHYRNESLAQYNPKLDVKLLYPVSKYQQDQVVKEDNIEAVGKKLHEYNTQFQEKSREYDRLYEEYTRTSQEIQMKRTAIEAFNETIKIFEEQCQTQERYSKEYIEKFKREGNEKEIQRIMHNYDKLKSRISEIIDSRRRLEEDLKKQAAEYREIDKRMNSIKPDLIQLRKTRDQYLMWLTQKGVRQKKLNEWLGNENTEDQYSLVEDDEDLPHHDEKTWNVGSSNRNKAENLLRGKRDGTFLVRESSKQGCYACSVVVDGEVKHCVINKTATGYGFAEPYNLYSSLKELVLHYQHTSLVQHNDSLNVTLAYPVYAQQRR
Experimental: as §1
• 1. Buffer preparation: 50 mM HEPES, pH 7.5, 3 mM MgCl2, 1 mM EGTA, 100 mM NaCl, 0.03% CHAPS. • 2. Compound was formulated in 100% DMSO in a concentration gradient, and added to a 384-well plate to a final DMSO concentration of 1%. • 3. PI3Kα, PI3Kδ, PI3Kβ and PI3Kγ enzymes were diluted to an optimum concentration with the following buffer: 50 mM HEPES, pH 7.5, 3 mM MgCl2, 1 mM EGTA, 100 mM NaCl, 0.03% CHAPS, 2 mM DTT, and transferred to a 384-well plate and incubated with the compound for a certain time. • 4. Substrate was diluted to an optimum concentration with the following buffer: 50 mM HEPES, pH 7.5, 3 mM MgCl2, 1 mM EGTA, 100 mM NaCl, 0.03% CHAPS, 2 mM DTT, 50 μM PIP2, 25 μM ATP; then added to a 384-well plate to initiate the reaction, and for PI3Kα, PI3Kβ and PI3Kγ at room temperature reacted for 1 hr, for PI3Kδ at room temperature reacted for 2 hrs. For PI3Kβ and PI3Kγ, it was still necessary to further add 10 μL ADP-Glo Detection Reagent, and then equilibrated at room temperature for 30 minutes. • 5. Read Luminescense with FlexStation, and calculate the inhibition rate as the average of two tests.

PI3Kδ, sequence (O00329 whole entry): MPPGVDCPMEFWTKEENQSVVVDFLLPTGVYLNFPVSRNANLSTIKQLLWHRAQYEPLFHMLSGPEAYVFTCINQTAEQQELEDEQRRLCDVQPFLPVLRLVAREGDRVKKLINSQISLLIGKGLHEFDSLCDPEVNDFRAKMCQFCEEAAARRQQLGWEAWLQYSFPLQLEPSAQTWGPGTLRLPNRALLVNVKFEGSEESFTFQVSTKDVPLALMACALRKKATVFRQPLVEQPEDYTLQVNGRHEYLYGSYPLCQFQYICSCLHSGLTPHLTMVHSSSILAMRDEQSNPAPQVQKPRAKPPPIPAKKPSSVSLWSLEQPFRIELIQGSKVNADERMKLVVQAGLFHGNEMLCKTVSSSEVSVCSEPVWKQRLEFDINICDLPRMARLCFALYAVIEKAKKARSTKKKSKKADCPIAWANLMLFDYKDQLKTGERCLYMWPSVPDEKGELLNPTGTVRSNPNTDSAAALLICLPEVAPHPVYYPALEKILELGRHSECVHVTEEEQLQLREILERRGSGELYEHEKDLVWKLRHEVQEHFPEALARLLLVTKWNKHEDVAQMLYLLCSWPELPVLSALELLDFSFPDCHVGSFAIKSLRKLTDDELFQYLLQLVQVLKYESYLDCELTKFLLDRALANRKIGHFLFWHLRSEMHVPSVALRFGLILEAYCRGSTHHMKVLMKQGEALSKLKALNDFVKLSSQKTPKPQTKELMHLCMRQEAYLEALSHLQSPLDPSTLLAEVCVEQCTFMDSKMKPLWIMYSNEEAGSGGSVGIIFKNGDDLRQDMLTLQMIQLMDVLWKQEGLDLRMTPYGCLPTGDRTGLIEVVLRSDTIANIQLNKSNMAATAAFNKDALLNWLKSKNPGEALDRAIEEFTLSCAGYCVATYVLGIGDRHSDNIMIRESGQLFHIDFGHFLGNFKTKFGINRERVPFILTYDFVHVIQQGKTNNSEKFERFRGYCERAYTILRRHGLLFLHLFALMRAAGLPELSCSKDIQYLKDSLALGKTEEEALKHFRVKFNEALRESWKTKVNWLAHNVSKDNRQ
PI3Kδ, sequence (P27986 whole entry partner): as the sequence (P27986 whole entry partner) above

Structure (SMILES)	pIC50 (PI3Kδ)	α/δ selectivity (PI3Kα)
CS(=O)(=O)N1CCN(Cc2csc3c(-c4c(F)ccc5[nH]ccc45)nc(N4CCOCC4)nc23)CC1 [Compound 1]	6.98	12
O=C(CO)N1CCN(Cc2csc3c(-c4cccc5[nH]ccc45)nc(N4CCOCC4)nc23)CC1 [Compound 12]	7.77	133
Cc1oc2ccccc2c1-c1nc(N2CCOCC2)nc2c(CN3CCN(C(=O)C(C)C)CC3)csc12 [Compound 16]	6.25	18
CCC(=O)N1CCN(Cc2csc3c(-c4cnn(C)c4)nc(N4CCOCC4)nc23)CC1 [Compound 18]	7.07	58
CC(C)C(=O)N1CCN(Cc2csc3c(-c4cnn(C)c4)nc(N4CCOCC4)nc23)CC1 [Compound 19]	7.06	49
Cc1cn(-c2nc(N3CCOCC3)nc3c(CN4CCN(C(=O)C(C)C)CC4)csc23)c(C)n1 [Compound 20]	7.18	54
COc1ncc(-c2nc(N3CCOCC3)nc3c(CN4CCN(C5COC5)CC4)csc23)cc1NS(C)(=O)=O [Compound 29]	8.16	34
CC(C)C(=O)N1CCN(Cc2csc3c(-c4cncc(NS(C)(=O)=O)c4)nc(N4CCOCC4)nc23)CC1 [Compound 31]	8.31	10
COc1ncc(-c2nc(N3CCOCC3)nc3c(CN4CCN(C5CCOCC5)CC4)csc23)cc1NS(C)(=O)=O [Compound 33]	8.38	51
COc1ncc(-c2nc(N3CCOCC3)nc3c(CN4CCOCC4)csc23)cc1NS(C)(=O)=O [Compound 36]	7.89	23
COc1ncc(-c2nc(N3CCOCC3)nc3c(CN4CCC(C(C)(C)O)CC4)csc23)cc1NS(=O)(=O)c1ccccc1 [Compound 41]	7.94	323
COc1ncc(-c2nc(N3CCOCC3)nc3c(CN4CCC(N(C)C)CC4)csc23)cc1NS(C)(=O)=O [Compound 43]	8.40	105
COc1ncc(-c2nc(N3CCOCC3)nc3c(CN4CCC(C(C)(C)O)CC4)csc23)cc1NS(=O)(=O)C1CC1 [Compound 50]	7.89	359
COc1ncc(-c2nc(N3CCOCC3)nc3c(CN4CCN(C)CC4)csc23)cc1NS(C)(=O)=O [Compound 51]	7.96	103
COc1ncc(-c2nc(N3CCOCC3)nc3c(CN4CCC(N(C)C(=O)OC(C)(C)C)CC4)csc23)cc1NS(C)(=O)=O [Compound 52]	7.44	252
CCN(C)C1CCN(Cc2csc3c(-c4cnc(OC)c(NS(C)(=O)=O)c4)nc(N4CCOCC4)nc23)CC1 [Compound 56]	8.12	293
COc1ncc(-c2nc(N3CCOCC3)nc3c(CN4CCC(N(C)C(C)C)CC4)csc23)cc1NS(C)(=O)=O [Compound 58]	8.27	150
COc1ncc(-c2nc(N3CCOCC3)nc3c(CN4CCN(S(C)(=O)=O)CC4)c(C)sc23)cc1NS(C)(=O)=O [Compound 61]	8.33	12
COc1ncc(-c2nc(N3CCOCC3)nc3c(CN4CCN(C(=O)C(F)(F)F)CC4)csc23)cc1NS(C)(=O)=O [Compound 62]	8.25	104
COc1ncc(-c2nc(N3CCOCC3)nc3c(CN4CCN(C(=O)NCC(F)(F)F)CC4)csc23)cc1NS(C)(=O)=O [Compound 63]	7.92	27

More lines, now with the values ahead:

pIC50 (PI3Kδ)	α/δ selectivity (PI3Kα)	Structure (SMILES)
6.84	>69	Cc1cc2c(-c3nc(N4CCOCC4)nc4c(CN5CCC(C(C)(C)O)CC5)csc34)cccc2[nH]1 [Compound 6]
7.30	>200	c1cc(-c2nc(N3CCOCC3)nc3c(CN4CCC(N5CCOCC5)CC4)csc23)c2cc[nH]c2c1 [Compound 9]
7.28	>192	CC(C)(O)CN1CCN(Cc2csc3c(-c4cccc5[nH]ccc45)nc(N4CCOCC4)nc23)CC1 [Compound 13]
7.47	>294	CC(C)(C)N1CCN(Cc2csc3c(-c4cccc5[nH]ccc45)nc(N4CCOCC4)nc23)CC1 [Compound 15]
7.28	74	CC(C)(O)C1CCN(Cc2csc3c(-c4ccnc5[nH]ccc45)nc(N4CCOCC4)nc23)CC1 [Compound 17]
6.82	19	Cc1nn(C)c(C)c1-c1nc(N2CCOCC2)nc2c(CN3CCN(C(=O)C(C)C)CC3)csc12 [Compound 21]
7.57	40	Cc1nc(Cl)cn1-c1nc(N2CCOCC2)nc2c(CN3CCN(C(=O)C(C)C)CC3)csc12 [Compound 23]
7.00	10	COc1ncc(-c2nc(N3CCOCC3)nc3c(CN4C[C@@H](C)O[C@@H](C)C4)csc23)cc1NS(C)(=O)=O [Compound 27]
7.46	56	COc1ncc(-c2nc(N3CCOCC3)nc3c(CN4CCN(C(=O)OC(C)(C)C)CC4)csc23)cc1NS(C)(=O)=O [Compound 28]
7.15	36	CC(C)C(=O)N1CCN(Cc2csc3c(-n4ccnc4C(F)(F)F)nc(N4CCOCC4)nc23)CC1 [Compound 30]
8.37	15	COc1ncc(-c2nc(N3CCOCC3)nc3c(CN4CCN(C(C)=O)CC4)csc23)cc1NS(C)(=O)=O [Compound 32]
8.47	44	COc1ncc(-c2nc(N3CCOCC3)nc3c(CN4CCN(C(C)(C)C)CC4)csc23)cc1NS(C)(=O)=O [Compound 34]
7.54	38	Cc1cn(-c2nc(N3CCOCC3)nc3c(CN4CCN(C(=O)C5CC5)CC4)csc23)c(C)n1 [Compound 37]
6.97	3	COc1ncc(-c2nc(N3CCOCC3)nc3ccoc23)cc1NS(C)(=O)=O [Compound 38]
8.04	159	COc1ncc(-c2nc(N3CCOCC3)nc3c(CN4CCN(C5CCN(C)CC5)CC4)csc23)cc1NS(C)(=O)=O [Compound 39]
7.77	41	COc1ncc(-c2nc(N3CCOCC3)nc3c(CN4CCN(C(=O)C5CCCCC5)CC4)csc23)cc1NS(C)(=O)=O [Compound 40]
7.89	152	COc1ncc(-c2nc(N3CCOCC3)nc3c(CN4CCC(C(=O)NCC(F)(F)F)CC4)csc23)cc1NS(C)(=O)=O [Compound 42]
8.21	23	COc1ncc(-c2nc(N3CCOCC3)nc3c(CN4CCN(C(=O)C(C)(C)C)CC4)csc23)cc1NS(C)(=O)=O [Compound 46]
8.46	9	COc1ncc(-c2nc(N3CCOCC3)nc3c(CN4CCN(C(=O)C(C)C)CC4)csc23)cc1NS(C)(=O)=O [Compound 47]
8.16	52	COc1ncc(-c2nc(N3CCOCC3)nc3c(CN4CC5CC4CN5C4COC4)csc23)cc1NS(C)(=O)=O (stereo not shown) [Compound 48]
8.24	15	COc1ncc(-c2nc(N3CCOCC3)nc3c(CN4CCN(C(=O)N5CCCC5)CC4)csc23)cc1NS(C)(=O)=O [Compound 49]
7.72	110	COc1ncc(-c2nc(N3CCOCC3)nc3c(CN4CC(C(C)(C)O)C4)csc23)cc1NS(C)(=O)=O [Compound 53]
8.57	108	COc1ncc(-c2nc(N3CCOCC3)nc3c(CN4CCC(C(C)(C)OC)CC4)csc23)cc1NS(C)(=O)=O [Compound 54]
8.25	224	COc1ncc(-c2nc(N3CCOCC3)nc3c(CN4CCC(N5C[C@@H](C)O[C@@H](C)C5)CC4)csc23)cc1NS(C)(=O)=O [Compound 55]
8.55	103	COc1ncc(-c2nc(N3CCOCC3)nc3c(CN4CCN(C(C)(C)C(N)=O)CC4)csc23)cc1NS(C)(=O)=O [Compound 57]
8.04	110	COc1ncc(-c2nc(N3CCOCC3)nc3c(CN4CCN(CC(F)(F)F)CC4)csc23)cc1NS(C)(=O)=O [Compound 64]
8.44	195	COc1ncc(-c2nc(N3CCOCC3)nc3c(CN4CCN(C(C)(C)C)CC4)csc23)cc1NS(=O)(=O)C1CC1 [Compound 67]

From patent US9745321B2, “Fused pyrimidine compound, intermediate, preparation method therefor, and composition and application thereof” (SHANGHAI YINGLI PHARMACEUTICAL CO., LTD, priority 2013, dated 2017)
